Earlier results, collected in PMC11845477, “Exploring the principles behind antibiotics with limited resistance” (Nature Communications, 2025).

Experiments:
[1] = test system: A. baumannii ATCC 17978 (SEN) and A. baumannii ATCC BAA-1605 (MDR); conditions: after 60 days of evolution; cited from earlier work
From the text: (§1) Using the same set of bacterial strains, we initiated adaptive laboratory evolution with the aim to maximize the level of antibiotic resistance in the populations achieved during a longer, but fixed time period. As expected, resistance levels were generally much higher than those observed in FoR assay. […] For instance, after 60 days of evolution, resistance levels increased by a maximum of fourfold in A. baumannii and in the E. coli sensitive strain e ...

[2] = test system: E. coli ATCC 25922 (SEN) and E. coli NCTC13846 (MDR); conditions: E. coli sensitive strain, after 60 days of evolution; cited from earlier work
From the text: as §1

In the case of `CC(C)c1ccc(Cn2ccc3c4c(N)nc(NC5CC5)nc4ccc32)cc1` [SCH79797], the “increase in resistance level after adaptive laboratory evolution” value [1] is given as “fourfold” and the “increase in resistance level after adaptive laboratory evolution” value [2] is given as “fourfold”.
